PubChem BioAssay AID330 (DTP/NCI, 2004)
Values joined by “and” are separate entries in the source; they are usually repeats but may differ in a detail not shown here. Identical values can stand only once. Inconclusive results and toxic doses are left out.

Test system: P388 leukemia ip, CD2F1 mice, survival T/C
Test: NCI In Vivo Anticancer Drug Screen. Data for tumor model P388 Leukemia (intraperitoneal) in CD2F1 (CDF1) mice
Conditions: endpoint: median survival time, higher = longer survival
How it was run: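 Mice carrying the transplanted tumor received test compound or vehicle. Survival was recorded in each group, and the value is the treated-group measurement divided by that of the vehicle-treated control group.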

[1] = dose: 50.0 mg/kg/injection, schedule: Q01DX009 (ip), vehicle: saline with Tween-80
[2] = dose: 100.0 mg/kg/injection, schedule: Q01DX009 (ip), vehicle: saline with Tween-80
[3] = dose: 200.0 mg/kg/injection, schedule: Q01DX009 (ip), vehicle: saline with Tween-80
[4] = dose: 50.0 mg/kg/injection, schedule: Q01DX009 (ip), vehicle: Klucel (hydroxypropylcellulose) (HPC)
[5] = dose: 100.0 mg/kg/injection, schedule: Q01DX009 (ip), vehicle: Klucel (hydroxypropylcellulose) (HPC)
[6] = dose: 50.0 mg/kg/injection, schedule: Q01DX009 (ip), vehicle: saline
[7] = dose: 100.0 mg/kg/injection, schedule: Q01DX009 (ip), vehicle: saline
[8] = dose: 200.0 mg/kg/injection, schedule: Q01DX009 (ip), vehicle: saline
[9] = dose: 60.0 mg/kg/injection, schedule: Q01DX005 (ip), vehicle: Klucel (hydroxypropylcellulose) (HPC)
[10] = dose: 120.0 mg/kg/injection, schedule: Q01DX005 (ip), vehicle: Klucel (hydroxypropylcellulose) (HPC)
[11] = dose: 240.0 mg/kg/injection, schedule: Q01DX005 (ip), vehicle: Klucel (hydroxypropylcellulose) (HPC)
[12] = dose: 30.0 mg/kg/injection, schedule: Q01DX005 (ip), vehicle: Klucel (hydroxypropylcellulose) (HPC)

## c1ccc(CSCCOCCOCCSCc2ccccn2)nc1
dose: 50.0 mg/kg/injection, schedule: Q01DX005 (ip), vehicle: Klucel (hydroxypropylcellulose) (HPC)
  T/C: 101 % of control
dose: 100.0 mg/kg/injection, schedule: Q01DX005 (ip), vehicle: Klucel (hydroxypropylcellulose) (HPC)
  T/C: 108 % of control
dose: 200.0 mg/kg/injection, schedule: Q01DX005 (ip), vehicle: Klucel (hydroxypropylcellulose) (HPC)
  T/C: 104 % of control

## C/C(CC(O)(c1ccccc1)c1ccccc1)=N/Sc1ccccc1
dose: 100.0 mg/kg/injection, schedule: Q04DX003 (ip), vehicle: Klucel (hydroxypropylcellulose) (HPC)
  T/C: 100 % of control
dose: 200.0 mg/kg/injection, schedule: Q04DX003 (ip), vehicle: Klucel (hydroxypropylcellulose) (HPC)
  T/C: 92 % of control
dose: 400.0 mg/kg/injection, schedule: Q04DX003 (ip), vehicle: Klucel (hydroxypropylcellulose) (HPC)
  T/C: 94 % of control

## Cc1ccc(NC(=O)Oc2ccc(F)cc2)c([N+](=O)[O-])c1
[1]
  T/C: 96 % of control
[2]
  T/C: 95 % of control
[3]
  T/C: 88 % of control

## CC(/C=C/c1ccccc1)=N\Nc1ccc(Cl)cc1Cl
[4]
  T/C: 118 % of control
[5]
  T/C: 100 % of control

## Cc1c(C)c2ccc(OCCCN3CCN(Cc4ccc(Cl)cc4)CC3)cc2oc1=O
dose: 50.0 mg/kg/injection, schedule: Q01DX009 (ip), vehicle: suspension in saline
  T/C: 88 % of control
dose: 100.0 mg/kg/injection, schedule: Q01DX009 (ip), vehicle: suspension in saline
  T/C: 91 % of control

## COc1cccc(-c2nc3n(n2)CCc2ccccc2-3)c1
[1]
  T/C: 105 % of control
[2]
  T/C: 106 % of control
[3]
  T/C: 86 % of control

## COc1cccc(/C=C2\CCc3ccccc3C2=O)c1OC
[4]
  T/C: 119 % of control
[5]
  T/C: 106 % of control
dose: 200.0 mg/kg/injection, schedule: Q01DX009 (ip), vehicle: Klucel (hydroxypropylcellulose) (HPC)
  T/C: 110 % of control

## CC1(C)C(N)C(C)(C)C1N (stereo not given)
[6]
  T/C: 94 % of control
[7]
  T/C: 97 % of control
[8]
  T/C: 86 % of control

## O=c1cc[nH]c2c1ccc1[nH]ccc(=O)c12
[9]
  T/C: 108 % of control
[10]
  T/C: 99 % of control
[11]
  T/C: 99 % of control

## CSc1snc2c1c(=O)n(C)c(=O)n2C
dose: 25.0 mg/kg/injection, schedule: Q04DX002 (ip), vehicle: saline with Tween-80
  T/C: 98 % of control
dose: 50.0 mg/kg/injection, schedule: Q04DX002 (ip), vehicle: saline with Tween-80
  T/C: 101 % of control
dose: 100.0 mg/kg/injection, schedule: Q04DX002 (ip), vehicle: saline with Tween-80
  T/C: 99 % of control

## COc1ccc(C(=O)Oc2ccc[nH]c2=O)cc1
[6]
  T/C: 102 % of control and 107 % of control
[7]
  T/C: 99 % of control and 102 % of control
[8]
  T/C: 98 % of control and 102 % of control
dose: 400.0 mg/kg/injection, schedule: Q01DX009 (ip), vehicle: saline
  T/C: 104 % of control and 93 % of control

## O=C1CSC(c2ccco2)N1c1nncs1 (stereo not given)
[12]
  T/C: 100 % of control
[9]
  T/C: 100 % of control
[10]
  T/C: 103 % of control
[11]
  T/C: 108 % of control

## O=C1CC(C2(c3ccccc3)SCCCS2)CO1 (stereo not given)
dose: 100.0 mg/kg/injection, schedule: Q01DX001 (ip), vehicle: Klucel (hydroxypropylcellulose) (HPC)
  T/C: 99 % of control
dose: 200.0 mg/kg/injection, schedule: Q01DX001 (ip), vehicle: Klucel (hydroxypropylcellulose) (HPC)
  T/C: 98 % of control
dose: 400.0 mg/kg/injection, schedule: Q01DX001 (ip), vehicle: Klucel (hydroxypropylcellulose) (HPC)
  T/C: 100 % of control

## O=C1CSC(c2ccccc2)N1c1nncs1 (stereo not given)
[12]
  T/C: 100 % of control
[9]
  T/C: 101 % of control
[10]
  T/C: 101 % of control
[11]
  T/C: 103 % of control

## COC(=O)/C(=C1/OC(=O)C(c2ccc(OC(C)=O)cc2)=C1O)c1ccc(Cl)cc1
dose: 50.0 mg/kg/injection, schedule: Q01DX009 (ip), vehicle: saline + Tween-80 + alcohol
  T/C: 111 % of control
dose: 100.0 mg/kg/injection, schedule: Q01DX009 (ip), vehicle: saline + Tween-80 + alcohol
  T/C: 115 % of control

## O=C1OC(=O)C2=C1CCC2
dose: 12.5 mg/kg/injection, schedule: Q01DX009 (ip), vehicle: distilled water + Tween-80
  T/C: 100 % of control
dose: 25.0 mg/kg/injection, schedule: Q01DX009 (ip), vehicle: distilled water + Tween-80
  T/C: 100 % of control
dose: 50.0 mg/kg/injection, schedule: Q01DX009 (ip), vehicle: distilled water + Tween-80
  T/C: 91 % of control

## O=C1N(Cl)C(=O)C(c2ccc(Cl)cc2)(c2ccc(Cl)cc2)N1Cl
dose: 12.5 mg/kg/injection, schedule: Q01DX009 (ip), vehicle: saline with Tween-80
  T/C: 118 % of control
[1]
  T/C: 150 % of control
